Measurements published in patent US8952024B2, “Herbicidal pyrimidone derivatives” (E I du Pont de Nemours and Company, priority 2009, dated 2015).

Key:
Experiment in all cases: Test D pre-/postemergence plant response
Format in all cases: in vivo
[1] = test system: Italian ryegrass (Lolium multiflorum)
From the text: (§1) Seeds of plant species selected from bermudagrass (Cynodon dactylon), Surinam grass (Brachiaria decumbens), large crabgrass (Digitaria sanguinalis), green foxtail (Setaria viridis), goosegrass (Eleusine indica), johnsongrass (Sorghum halepense), kochia (Kochia scoparia), morningglory (pitted morningglory, Ipomoea lacunosa), nutsedge (purple nutsedge, Cyperus rotundus), ragweed (common ragweed, Ambrosia elatior), black mustard (Brassica nigra), guineagrass (Panicum maximum), dallisgrass (Paspalum dilatatum), barnyardgrass (Echinochloa crus-galli), sandbur (southern sandbur, Cenchrus echinatus), sowthistle (common sowthistle, Sonchus oleraceous), prickly sida (Sida spinosa), Italian ryegrass (Lolium multiflorum), purslane (common purslane, Portulaca oleracea), signalgrass (broadleaf signalgrass, Brachiaria platyphylla), groundsel (common groundsel, Senecio vulgaris), chickweed (common chickweed, Stellaria media), dayflower (Virginia (VA) dayflower, Commelina virginica), bluegrass (annual bluegrass, Poa annua), naked crabgrass (Digitaria nuda), itchgrass (Rottboellia cochinchinensis), quackgrass (Elytrigia repens), field bindweed (Convolvulus arvensis), spanishneedles (Bidens bipinnata), mallow (common mallow, Malva sylvestris) and Russian thistle (Salsola kali), were planted into a blend of loam soil and sand and treated preemergence with test chemicals formulated in a non-phytotoxic solvent mixture which included a surfactant. At the same time, plants from these weed species were treated with postemergence applications of the test chemicals formulated in the same manner. Plants ranged in height from 2 to 18 cm (1- to 4-leaf stage) for postemergence treatments.
(§2) Treated plants and controls were maintained in a greenhouse for 14 to 21 days, after which time all species were visually evaluated and compared to controls. Plant response ratings, summarized in Table D, are based on a scale of 0 to 100 where 0 is no effect and 100 is complete control. A dash (-) response means no test result.

[2] = test system: black mustard (Brassica nigra)
From the text: as §1, §2

[3] = test system: dayflower (Virginia (VA) dayflower, Commelina virginica)
From the text: as §1, §2

[4] = test system: field bindweed (Convolvulus arvensis)
From the text: as §1, §2

[5] = test system: groundsel (common groundsel, Senecio vulgaris); conditions: Postemergence
From the text: as §1, §2

[6] = test system: itchgrass (Rottboellia cochinchinensis)
From the text: as §1, §2

[7] = test system: nutsedge (purple nutsedge, Cyperus rotundus)
From the text: as §1, §2

[8] = test system: prickly sida (Sida spinosa)
From the text: as §1, §2

[9] = test system: purslane (common purslane, Portulaca oleracea)
From the text: as §1, §2

[10] = test system: sowthistle (common sowthistle, Sonchus oleraceous)
From the text: as §1, §2

[11] = Postemergence, 16 g ai/ha, scale 0 to 100
[12] = Postemergence, 31 g ai/ha, scale 0 to 100
[13] = Postemergence, 125 g ai/ha, scale 0 to 100 (0 no effect, 100 complete control)
[14] = Postemergence, 62 g ai/ha, scale 0 to 100 (0 no effect, 100 complete control)
[15] = Preemergence, 16 g ai/ha, scale 0 to 100, 0 no effect, 100 complete control
[16] = Preemergence, 31 g ai/ha, scale 0 to 100 (0 no effect, 100 complete control)
[17] = Preemergence, 125 g ai/ha, scale 0 to 100
[18] = Postemergence, 31 g ai/ha, scale 0 to 100 (0 no effect, 100 complete control)
[19] = Preemergence, 62 g ai/ha, scale 0 to 100
[20] = 125 g ai/ha, scale 0 to 100 (0 no effect, 100 complete control)
[21] = 62 g ai/ha, scale 0 to 100 (0 no effect, 100 complete control)

Cc1ccc(Cl)cc1-n1c(-c2ccccc2)ncc(C(=O)C2=C(O)CCCC2=O)c1=O [Compound 52]
Plant response rating, Ryegrass, Italian [1, 11]: 0 | Plant response rating, Ryegrass, Italian [1, 12]: 0 | Plant response rating, Ryegrass, Italian [1, 13]: 35 | Plant response rating, Ryegrass, Italian [1, 14]: 15 | Plant response rating, Ryegrass, Italian [1, 15]: 0 | Plant response rating, Ryegrass, Italian [1, 16]: 0 | Plant response rating, Ryegrass, Italian [1, 17]: 15 | Plant response rating, Black Mustard [2, 11]: 65 | Plant response rating, Black Mustard [2, 18]: 90 | Plant response rating, Black Mustard [2, 13]: 98 | Plant response rating, Black Mustard [2, 14]: 98 | Plant response rating, Black Mustard [2, 15]: 0 | Plant response rating, Black Mustard [2, 16]: 20 | Plant response rating, Black Mustard [2, 19]: 80 | Plant response rating, Black Mustard [2, 17]: 100 | Plant response rating, Dayflower, VA [3, 11]: 5 | Plant response rating, Dayflower, VA [3, 12]: 5 | Plant response rating, Dayflower, VA [3, 13]: 60 | Plant response rating, Dayflower, VA [3, 14]: 30 | Plant response rating, Dayflower, VA [3, 15]: 0 | Plant response rating, Dayflower, VA [3, 16]: 0 | Plant response rating, Dayflower, VA [3, 19]: 0 | Plant response rating, Dayflower, VA [3, 17]: 40 | Plant response rating, Field Bindweed [4, 11]: 50 | Plant response rating, Field Bindweed [4, 12]: 70 | Plant response rating, Field Bindweed [4, 13]: 70 | Plant response rating, Field Bindweed [4, 14]: 70 | Plant response rating, Field Bindweed [4, 15]: 20 | Plant response rating, Field Bindweed [4, 19]: 20 | Plant response rating, Field Bindweed [4, 17]: 50 | Plant response rating, Groundsel ([5]; 16 g ai/ha, scale 0 to 100): 100 | Plant response rating, Groundsel ([5]; 31 g ai/ha, scale 0 to 100): 100 | Plant response rating, Groundsel [5, 20]: 100 | Plant response rating, Groundsel [5, 21]: 100 | Plant response rating, Itchgrass [6, 11]: 25 | Plant response rating, Itchgrass [6, 12]: 50 | Plant response rating, Itchgrass [6, 13]: 65 | Plant response rating, Itchgrass [6, 14]: 65 | Plant response rating, Itchgrass [6, 15]: 0 | Plant response rating, Itchgrass [6, 16]: 0 | Plant response rating, Itchgrass [6, 19]: 0 | Plant response rating, Itchgrass [6, 17]: 5 | Plant response rating, Nutsedge, Purple [7, 11]: 0 | Plant response rating, Nutsedge, Purple [7, 12]: 20 | Plant response rating, Nutsedge, Purple [7, 13]: 40 | Plant response rating, Nutsedge, Purple [7, 14]: 35 | Plant response rating, Nutsedge, Purple [7, 15]: 0 | Plant response rating, Nutsedge, Purple [7, 16]: 5 | Plant response rating, Nutsedge, Purple [7, 19]: 30 | Plant response rating, Nutsedge, Purple [7, 17]: 40 | Plant response rating, Prickly Sida [8, 11]: 65 | Plant response rating, Prickly Sida [8, 12]: 65 | Plant response rating, Prickly Sida [8, 13]: 90 | Plant response rating, Prickly Sida [8, 14]: 80 | Plant response rating, Prickly Sida [8, 15]: 0 | Plant response rating, Prickly Sida [8, 16]: 0 | Plant response rating, Prickly Sida [8, 19]: 50 | Plant response rating, Prickly Sida [8, 17]: 100 | Plant response rating, Purslane [9, 11]: 65 | Plant response rating, Purslane [9, 12]: 65 | Plant response rating, Purslane [9, 13]: 75 | Plant response rating, Purslane [9, 14]: 65 | Plant response rating, Purslane [9, 15]: 0 | Plant response rating, Purslane [9, 16]: 60 | Plant response rating, Purslane [9, 19]: 90 | Plant response rating, Purslane [9, 17]: 100 | Plant response rating, Sowthistle [10, 11]: 80 | Plant response rating, Sowthistle [10, 12]: 95 | Plant response rating, Sowthistle [10, 13]: 100 | Plant response rating, Sowthistle [10, 14]: 98 | Plant response rating, Sowthistle [10, 15]: 0 | Plant response rating, Sowthistle [10, 16]: 80 | Plant response rating, Sowthistle [10, 17]: 100

O=C1CCCC(O)=C1C(=O)c1cnc(C2CC2)n(-c2ccccc2)c1=O [Compound 87]
Plant response rating, Ryegrass, Italian [1, 11]: 0 | Plant response rating, Ryegrass, Italian [1, 12]: 0 | Plant response rating, Ryegrass, Italian [1, 13]: 5 | Plant response rating, Ryegrass, Italian [1, 14]: 0 | Plant response rating, Ryegrass, Italian [1, 15]: 0 | Plant response rating, Ryegrass, Italian [1, 16]: 0 | Plant response rating, Ryegrass, Italian [1, 17]: 30 | Plant response rating, Black Mustard [2, 11]: 40 | Plant response rating, Black Mustard [2, 18]: 65 | Plant response rating, Black Mustard [2, 13]: 100 | Plant response rating, Black Mustard [2, 14]: 100 | Plant response rating, Black Mustard [2, 15]: 75 | Plant response rating, Black Mustard [2, 16]: 75 | Plant response rating, Black Mustard [2, 19]: 100 | Plant response rating, Black Mustard [2, 17]: 100 | Plant response rating, Dayflower, VA [3, 11]: 10 | Plant response rating, Dayflower, VA [3, 12]: 35 | Plant response rating, Dayflower, VA [3, 13]: 70 | Plant response rating, Dayflower, VA [3, 14]: 60 | Plant response rating, Dayflower, VA [3, 15]: 0 | Plant response rating, Dayflower, VA [3, 16]: 0 | Plant response rating, Dayflower, VA [3, 19]: 65 | Plant response rating, Dayflower, VA [3, 17]: 65 | Plant response rating, Field Bindweed [4, 11]: 0 | Plant response rating, Field Bindweed [4, 12]: 15 | Plant response rating, Field Bindweed [4, 13]: 40 | Plant response rating, Field Bindweed [4, 14]: 25 | Plant response rating, Field Bindweed [4, 15]: 0 | Plant response rating, Field Bindweed [4, 16]: 0 | Plant response rating, Field Bindweed [4, 19]: 40 | Plant response rating, Field Bindweed [4, 17]: 70 | Plant response rating, Groundsel ([5]; 16 g ai/ha, scale 0 to 100): 98 | Plant response rating, Groundsel ([5]; 31 g ai/ha, scale 0 to 100): 98 | Plant response rating, Groundsel [5, 20]: 100 | Plant response rating, Groundsel [5, 21]: 100 | Plant response rating, Itchgrass [6, 11]: 0 | Plant response rating, Itchgrass [6, 12]: 0 | Plant response rating, Itchgrass [6, 13]: 30 | Plant response rating, Itchgrass [6, 14]: 30 | Plant response rating, Itchgrass [6, 15]: 0 | Plant response rating, Itchgrass [6, 16]: 20 | Plant response rating, Itchgrass [6, 19]: 20 | Plant response rating, Itchgrass [6, 17]: 20 | Plant response rating, Nutsedge, Purple [7, 11]: 0 | Plant response rating, Nutsedge, Purple [7, 12]: 10 | Plant response rating, Nutsedge, Purple [7, 13]: 50 | Plant response rating, Nutsedge, Purple [7, 14]: 20 | Plant response rating, Nutsedge, Purple [7, 15]: 0 | Plant response rating, Nutsedge, Purple [7, 16]: 5 | Plant response rating, Nutsedge, Purple [7, 19]: 50 | Plant response rating, Nutsedge, Purple [7, 17]: 75 | Plant response rating, Prickly Sida [8, 11]: 70 | Plant response rating, Prickly Sida [8, 12]: 80 | Plant response rating, Prickly Sida [8, 13]: 95 | Plant response rating, Prickly Sida [8, 14]: 80 | Plant response rating, Prickly Sida [8, 15]: 50 | Plant response rating, Prickly Sida [8, 16]: 60 | Plant response rating, Prickly Sida [8, 19]: 100 | Plant response rating, Prickly Sida [8, 17]: 100 | Plant response rating, Purslane [9, 11]: 10 | Plant response rating, Purslane [9, 12]: 25 | Plant response rating, Purslane [9, 13]: 35 | Plant response rating, Purslane [9, 14]: 35 | Plant response rating, Purslane [9, 15]: 70 | Plant response rating, Purslane [9, 16]: 100 | Plant response rating, Purslane [9, 19]: 100 | Plant response rating, Purslane [9, 17]: 100 | Plant response rating, Sowthistle [10, 11]: 90 | Plant response rating, Sowthistle [10, 12]: 98 | Plant response rating, Sowthistle [10, 13]: 100 | Plant response rating, Sowthistle [10, 14]: 98 | Plant response rating, Sowthistle [10, 15]: 98 | Plant response rating, Sowthistle [10, 16]: 100 | Plant response rating, Sowthistle [10, 17]: 100
